Experiment [1] concerns the target T1, hα7-wt nAChR-expressing GH4C1 cells (Homo sapiens, UniProt P36544).
T1 construct: expressed in transfected cells
The experiment is described as follows: Patch-clamp current recording (whole-cell voltage clamp), potentiation of the choline current and PAM type. Set-up: key: Type 0 compounds minimally enhance the effect size of the current elicited by 1 mM choline.; Type 1 compounds enhance the effect size of the current elicited by 1 mM choline but minimally alter the kinetics of the receptor.; Type 2 compounds enhance the effect size of the current elicited by 1 mM choline while reducing the rate and/or the extent of desensitization.; Type 3 compounds enhance the effect size of the current elicited by 1 mM choline. When tested at higher concentrations up to 10 μM they completely inhibit desensitization, in particular a 1 mM choline application of 250 milliseconds.; Type 4 compounds allow for an initial desensitization of the receptor followed by a re-opening of the receptor during agonist application. It counts as cell-based. To be noted: 1 mM choline. As to the method: The compounds of the present invention are classified as type 1-4, based on qualitative kinetic properties, as determined by whole-cell voltage-clamp recordings. This classification is based on the effect of an α7 PAM compound, as described hereinbefore, on the signal elicited by an agonist application. In particular, said agonist is choline at a concentration of 1 mM. In a preferred experimental setting, said α7 PAM compound and choline are simultaneously applied to the cell, as described hereinafter. Desensitization is defined as the closure of the receptor upon activation during the application of the agonist in whole-cell voltage-clamp electrophysiology measurements seen as the reduction of the […] current after initial activation by the agonist.
The definition of the PAM types 1-4 is described hereinafter: • Type 0 compounds minimally enhance the effect size of the current elicited by 1 mM choline. • Type 1 compounds enhance the effect size of the current elicited by 1 mM choline but minimally alter the kinetics of the receptor. In particular, the rate and the extent of desensitization, elicited by the agonist, is not affected. The compound-modulated response to 1 mM choline, therefore, is a close to linear scaling of the 1 mM choline response in absence of the α7 PAM compound. • Type 2 compounds enhance the effect size of the current elicited by 1 mM choline while reducing the rate and/or the extent of desensitization. • Type 3 compounds enhance the effect size of the current elicited by 1 mM choline. […] At low-potency concentrations of the α7 PAM compound, the agonist-induced activation, which is followed by desensitization, can still be separated from the compound-induced re-opening as an initial inward current-maximum. At higher potency concentrations of the α7 PAM compound, the re-opening occurs faster than the closure due to desensitization so that the initial current-maximum disappears.
A compound was considered to have interesting PAM-like activity when the potentiation of the peak current was at least 200% compared to the control choline response (=100%). Such compounds are classified as belonging to a particular PAM type in the Experimental Part. Compounds not meeting the condition are not classified as belonging to a particular PAM-type.
The compounds also have a potentiating effect on the response to choline when measured by whole-cell patch clamp electrophysiology in GH4C1 cells stably over-expressing the human wild-type α7 receptor.
Patch-Clamp Current Recording
Patch-clamp recording from mammalian cells has provided a powerful means of assessing the function of membrane-bound proteins thought to be subunits of ligand-gated ion channels. Activation of such proteins by endogenous or exogenous ligands cause opening of a pore associated with the receptor through which ions flow down their electrochemical gradient. In the case of the hα7-wt nAChR-expressing GH4C1 recombinant cell line the preferential permeability to calcium of this receptor means that calcium flows into the cell upon activation by ACh, choline and other nicotinic ligands giving rise to a calcium current. Since this receptor rapidly desensitizes in the presence of agonist it is important an application system is used which is capable of very rapid switching of solutions (<100 ms) to prevent partial or full desensitisation of receptor responses coincident with the time of agonist application. Consequently, a second convenient technique to assess the enhancement of nicotinic efficacy is patch-clamp recording from hα7-wt nAChR-expressing GH4C1 cells coupled with a rapid-application system.
• The external recording solution consisted of 152 mM NaCl, 5 mM KCl, 1 mM MgCl2, 1 mM Calcium, 10 mM HEPES; pH 7.3. […]

Experiment [2] deals with T2, hα7-wt nAChR (Homo sapiens, UniProt P36544).
T2 construct: expressed in transfected cells
T2 sequence (P36544 23-502): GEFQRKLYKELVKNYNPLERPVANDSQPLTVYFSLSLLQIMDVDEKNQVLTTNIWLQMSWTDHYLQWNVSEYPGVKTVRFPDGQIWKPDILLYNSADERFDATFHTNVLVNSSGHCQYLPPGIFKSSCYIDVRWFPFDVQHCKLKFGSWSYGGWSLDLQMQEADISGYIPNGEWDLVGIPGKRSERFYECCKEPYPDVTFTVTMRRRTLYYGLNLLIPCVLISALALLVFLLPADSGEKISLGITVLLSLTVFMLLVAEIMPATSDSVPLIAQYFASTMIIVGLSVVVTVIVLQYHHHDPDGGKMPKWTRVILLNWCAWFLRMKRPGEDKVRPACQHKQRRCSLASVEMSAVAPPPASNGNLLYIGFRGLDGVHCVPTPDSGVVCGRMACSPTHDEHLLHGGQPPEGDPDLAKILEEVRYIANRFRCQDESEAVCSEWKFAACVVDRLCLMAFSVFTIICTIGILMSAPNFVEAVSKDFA
Kind of experiment: Ca2+ flux imaging (FDSS) (Protocol B), potentiation of the choline response. It counts as cell-based. The note with it: Ca2+ assay as described in D.1; for EC50: "<5" = activity did not reach a top plateau at maximal concentration; for Emax: read-out: % Efficacy. As to the method: Ca^2+ Flux Imaging (FDSS) (Protocol B)
• Hanks buffered saline solution (HBSS, Invitrogen, Belgium), supplemented with 10 mM HEPES (Invitrogen, Belgium), CaCl2 to a final concentration of 5 mM, 0.1% Bovine serum albumin (Sigma-Aldrich NV, Belgium). b) Calcium-Sensitive Dye—Fluo-4AM • Fluo-4AM (Molecular Probes, USA) was dissolved in DMSO containing 10% Pluronic acid (Molecular Probes, USA) to give a stock solution which was diluted in assay buffer supplemented with 5 mM probenicid (Sigma, Aldrich NV, Belgium) to give a final concentration of 2 μM. c) 384-Well Plates • Black 384 well plate black/clear plates, PDL pre-coated (Corning, Incorporated, USA) d) Calcium Flux Measurement • A Functional drug screening system (FDSS, Hamamatsu) was used to measure intracellular free-calcium flux signals. Method
Monolayers of hα7-wt nAChR-expressing cells were grown in multi-well plates, in particular black-sided, transparent bottomed 384 well plates coated with poly-D-lysine for 24 hours prior to loading with a fluorescent calcium indicator, in a particular embodiment loading with fluo-4AM for up to 120 minutes.
PAM activity was detected in real time by applying the compounds to be tested to the loaded cells along with a α7 nicotinic receptor agonist during constant monitoring of cellular fluorescence in a FDSS. Compounds giving peak fluorescent responses greater than the response due to agonist alone, were considered to be α7 nAChR PAM's. In a particular embodiment, the α7 nicotinic receptor agonist was choline, a more particular embodiment choline applied at a sub-maximal concentration of 100 μM. In a further setting of the present invention the compounds to be tested were applied prior to the α7 nicotinic receptor agonist, in a particular embodiment up to 10 minutes prior to the agonist.
A control response to choline was calculated on each plate from the difference in peak in fluorescence in wells receiving either choline or assay buffer alone. Compounds of the present invention were tested at a concentration range from 0.01 μM to 30 μM. Compounds were considered to have an interesting activity when they potentiated the choline signal at least with 200% when tested at a concentration of 30 μM (the efficacy of 100 μM choline was defined as 100% in the absence of a PAM). An EC50 (or pEC50) was determined as a concentration relating to half the maximal effect, when a clear sigmoidal curve with top plateau was obtained.
In general terms: Calcium flux is commonly read through the fluorescence of an indicator in the cells.

Structures are written as SMILES.

T1 sequence (P36544 23-502): as above

`CCNc1cc(-c2cc(Nc3ccc(F)c(F)c3)nn2C[C@H](C)O)ccn1` [compound 62]: the PAM type in experiment [1] worked out at 1. Further, the EC50 (commonly the concentration at which the effect is half-maximal) in experiment [2] is 1320 nM.

As for `CNC(=O)Cn1nc(Nc2ccc(F)c(F)c2)cc1-c1cc(C)nc(C)c1` [compound 55], the PAM type in experiment [1] came out at 2. Also, the EC50 in experiment [2] is 1700 nM.

As to `CNC(=O)Cn1nc(Nc2ccc3c(c2)OC(F)(F)O3)cc1-c1ccnc(C)c1` [compound 92], in experiment [1], the PAM type was 2. In experiment [2], the EC50 was 1860 nM.

On to `CNC(=O)Cn1nc(Nc2cccc(OC(F)(F)F)c2)cc1-c1ccnc(C)c1` [compound 35], for which the PAM type in experiment [1] is 2. Moreover, in experiment [2], the EC50 is 2450 nM.

For `Cc1cc(-c2cc(Nc3ccc(F)c(F)c3)nn2CCC(=O)N(C)C)cc(C)n1` [compound 119], the PAM type in experiment [1] was 2. The EC50 in experiment [2] is 1100 nM.

Turning to `CC[C@H](O)Cn1nc(Nc2cccc(Cl)c2)cc1-c1ccnc(COC)c1` [compound 136], the PAM type in experiment [1] is recorded as 1. In experiment [2], the EC50 was 646 nM.

In the case of `CCNC(=O)Cn1nc(Nc2cccc(Cl)c2F)cc1-c1cc(C)nc(C)c1` [compound 154], in experiment [1], the PAM type was found to be 2. For the same compound, in experiment [2], the EC50 is 525 nM and the Emax came to 901%.

As to `CCNC(=O)Cn1nc(Nc2ccc(F)c(C(F)(F)F)c2)cc1-c1ccnc(C)c1` [compound 38], the PAM type in experiment [1] worked out at 2. The concentration for a half-maximal effect (EC50) in experiment [2] is 575 nM.

For the compound `CN(C)C(=O)CCn1nc(Nc2ccc(F)c(F)c2)cc1-c1cccnc1` [compound 19], the PAM type in experiment [1] is reported as 2. The concentration giving a half-maximal response (EC50) in experiment [2] was 4270 nM.

Turning to `CCNC(=O)Cn1nc(Nc2cc(Cl)cc(OC)c2)cc1-c1ccnc(C)c1` [compound 108], the PAM type in experiment [1] was 2. Besides, in experiment [2], the EC50 was 1860 nM.

Consider `COc1cc(Nc2cc(-c3ccnc(C)c3)n(CC(=O)NC3CC3)n2)cc(C(F)(F)F)c1` [compound 104], for which the PAM type in experiment [1] is listed as 3. In addition, the EC50 in experiment [2] was 2690 nM.

With `CCNC(=O)Cn1nc(Nc2ccc3c(c2)OC(F)(F)O3)cc1-c1cc(C)nc(C)c1` [compound 153], the PAM type in experiment [1] was determined as 2. In experiment [2], the concentration giving a half-maximal response (EC50) was 417 nM and the Emax came to 737%.

Regarding `CC[C@H](O)Cn1nc(Nc2cccc(Cl)c2)cc1-c1cc(C)nc(C)c1` [compound 58], in experiment [1], the PAM type is 1. Also, the EC50 in experiment [2] is 759 nM.

For `Cc1cc(-c2cc(Nc3cccc(Cl)c3F)nn2CCC(=O)N(C)C)ccn1` [compound 124], in experiment [1], the PAM type is on record as 1. For the same compound, the EC50 in experiment [2] was 977 nM.

Consider `COCc1cc(-c2cc(Nc3ccc4c(c3)OC(F)(F)O4)nn2CCC(=O)N(C)C)ccn1` [compound 96], for which the PAM type in experiment [1] is 3. In experiment [2], the EC50 was 182 nM.

For `Cc1cc(-c2cc(Nc3cc(F)c(F)c(F)c3)nn2CC(=O)NCC2CC2)ccn1` [compound 168], the PAM type in experiment [1] turned out to be 2. In experiment [2], the EC50 is 263 nM and the Emax amounted to 778%.

On to `Cc1cc(-c2cc(Nc3ccc4c(c3)OC(F)(F)O4)nn2CC(=O)NC2CCC2)cc(C)n1` [compound 158], for which the PAM type in experiment [1] is on record as 1. Also, in experiment [2], the EC50 was 363 nM and the Emax worked out at 509%.

In the case of `CN(C)C(=O)CCn1nc(Nc2ccc(F)c(F)c2)cc1-c1ccncc1` [compound 21], the PAM type in experiment [1] came out at 3. The EC50 in experiment [2] was 1230 nM.

As for `CNC(=O)Cn1nc(Nc2cccc(Cl)c2F)cc1-c1ccnc(COC)c1` [compound 106], in experiment [1], the PAM type came out at 2. Also, the EC50 in experiment [2] is 1950 nM.

On to `Cc1cc(-c2cc(Nc3cccc(Cl)c3)nn2CCC(=O)N(C)C)ccn1` [compound 146], for which the PAM type in experiment [1] is 2. Moreover, in experiment [2], the concentration giving a half-maximal response (EC50) was 447 nM.

Turning to `COc1cc(Cl)cc(Nc2cc(-c3ccnc(C)c3)n(CCC(=O)N(C)C)n2)c1` [compound 126], the PAM type in experiment [1] worked out at 2. Besides, in experiment [2], the EC50 is 912 nM.

`CCNC(=O)Cn1nc(Nc2ccc3c(c2)OC(F)(F)O3)cc1-c1ccncc1C` [compound 91]: the PAM type in experiment [1] came out at 2. The EC50 in experiment [2] was 2630 nM.

Take `Cc1ccnc(-c2cc(Nc3ccc(F)c(F)c3)nn2CCC(=O)N(C)C)c1` [compound 22]: in experiment [1], the PAM type was 2. In experiment [2], the EC50 is 2450 nM.

`CCNc1cc(-c2cc(Nc3cc(F)cc(F)c3)nn2C[C@@H](O)CC)ccn1` [compound 8, (alphaS)-3-[(3,5-difluorophenyl)amino]-alpha-ethyl-5-[2-(ethylamino)-4-pyridinyl]-1H-pyrazole-1-ethanol]: the PAM type in experiment [1] came out at 1. Further, in experiment [2], the EC50 is 955 nM and the Emax came out at 1000%.

Take `Cc1cc(-c2cc(Nc3cccc(Cl)c3F)nn2CCC(=O)N(C)C)cc(C)n1` [compound 173]: the PAM type in experiment [1] was found to be 1. In addition, in experiment [2], the EC50 is 135 nM and the Emax was found to be 401%.

Consider `COc1cc(Nc2cc(-c3ccnc(C)c3)n(CCC(=O)N(C)C)n2)cc(C(F)(F)F)c1` [compound 143], for which, in experiment [1], the PAM type came to 4. The EC50 in experiment [2] is 575 nM.

Turning to `CCNc1cc(-c2cc(Nc3ccc(F)c(C(F)(F)F)c3)nn2C[C@@H](O)CC)cc(C)n1` [compound 68], the PAM type in experiment [1] worked out at 0. For the same compound, the EC50 in experiment [2] was 724 nM.

Consider `CNC(=O)Cn1nc(Nc2cccc(C(F)(F)F)c2)cc1-c1ccnc(C)c1` [compound 32], for which the PAM type in experiment [1] turned out to be 2. In experiment [2], the EC50 is 4270 nM.

As to `CNC(=O)Cn1nc(Nc2ccc3c(c2)OC(F)(F)O3)cc1-c1cc(C)nc(C)c1` [compound 130], the PAM type in experiment [1] is on record as 2. For the same compound, in experiment [2], the EC50 is 813 nM and the Emax was found to be 632%.

Consider `CC[C@H](O)Cn1nc(Nc2cc(F)cc(F)c2)cc1-c1ccnc(COC)c1` [compound 71], for which the PAM type in experiment [1] worked out at 1. In experiment [2], the EC50 was 1380 nM and the Emax came to 700%.

The values are drawn from patent publication US8779158B2, “Trisubstituted pyrazoles as acetylcholine receptor modulators” (Janssen Pharmaceutica NV, priority 2008, dated 2014).
